Test results published in patent publication US20140023650A1, “Methods of Treating and/or Preventing Cell Proliferation Disorders with IL-17 Antagonists” (INSTITUT MEDICAL DE LA SANTE ET DE LA RECHERCHE MEDICALE, priority 2010, published 2014).

Experiments:
[1] = tested on: MCF10A; assay: Transwell migration and Matrigel invasion assays, MCF10A; format: cell-based, human; settings: for increase in cell invasion / increase in cell migration: TNFα 100 ng/mL or TGFβ 8 ng/mL, 9 days
Experimental: (§1) FIG. 16: IL-17 induces Epithelial to Mesenchymal Transition (EMT) via Twist-1 upregulation in mammary epithelial cells which increases cell migration, invasion and stemness. Human immortalized mammary epithelial cells (MCF10A) cells were untreated (NT) or treated with TNFα (100 ng/mL), TGF (8 ng/mL) or IL-17 (10 ng/mL) for 9 days. (A) MCF10A cells were first transduced using shRNA lentiviral constructs targeting the LUCIFERASE gene (shCt), AICDA gene (shAICDA) or TWIST1 gene (shTWIST1) mRNA and then treated with cytokines as indicated above. IL-17 (but no TNFα or TGFβ) induces EMT in ShCt and ShAICDA MCF10A characterized by loss of epithelial marker E-Cadherin (which, in color, fluoresces in green) and gain of mesenchymal marker Vimentin (which, in color, fluoresces in red) as assessed by immunofluorescence. […] (B) IL-17 (but no TNFα or TGFβ) induces EMT characterized by loss of epithelial markers E-Cadherin, α-Catenin and Occludin and gain of mesenchymal markers N-Cadherin and Vimentin as assessed by immunobloting. Actin was used as a loading control. (C) IL-17 enhances migratory (black bars) and invasive (white bars) abilities of MCF10A cells as assessed in Boyden chamber assays. (D-1 to D-3) IL-17 increases the number of CD24^low CD44^high stem cells in MCF10A cells. Flow cytometry assay showing CD24 and CD44 expression in untreated (NT) and IL-17-treated MCF10A cells (IL-17). Decreased CD24 and increased CD44 expression is indicative of normal stem cells. Red box indicates the stem cell population.
For transwell migration assay, 5·10^4 cells were plated in the top chamber with the non-coated membrane (24-well insert; pore size, […]; BD Biosciences). For invasion assay, 5·10^4 cells were plated in the top chamber with Matrigel-coated membrane (24-well insert; pore size, […]; BD Biosciences). In both assays, cells were plated in 1% serum medium, and 10% serum medium was used as a chemo-attractant in the lower chamber. The cells were incubated for 24 h. Cells that reached the lower chamber were stained with Giemsa and counted. Total number of migrating/invading cell was calculated by analyzing 5 fields per well in two independent experiments, that is 10 fields per condition.

[2] = tested on: patients with Rheumatoid Arthritis; settings: cited from earlier work
[3] = tested on: MCF7 breast cancer cells; assay: Boyden chamber migration and invasion assays, MCF7; format: cell-based, human; settings: MCF7, IL-17 10 ng/mL, stimulated (FIG. 17B)
Source text: FIG. 17: IL-17 induces Epithelial to Mesenchymal Transition (EMT) in well differentiated and non-metastatic MCF7 breast cancer cells which increases MCF7 cancer cell migration, invasion and sternness. […] (A) IL-17 (but not TGFβ) induces EMT characterized by loss of epithelial marker E-Cadherin (which, in color, fluoresces in green) and gain of mesenchymal marker Vimentin (which, in color, fluoresces in red) as assessed by immunofluorescence. (B) IL-17 enhances migratory (black bars) and invasive (white bars) abilities of MCF7 cancer cells as assessed in Boyden chamber assays. (C-1 to C-3) IL-17 increases the number of CD24^low CD44^high stem cells in MCF7 cancer cells. Flow cytometry assay showing CD24 and CD44 expression in untreated (NT) and IL-17-treated MCF7 cells (IL-17). Decreased CD24 and increased CD44 expression is indicative of cancer stem cells. Red box indicates the cancer stem cell population.
For transwell migration assay, 5·10^4 cells were plated in the top chamber with the non-coated membrane (24-well insert; pore size, […]; BD Biosciences). […] Cells that reached the lower chamber were stained with Giemsa and counted. Total number of migrating/invading cell was calculated by analyzing 5 fields per well in two independent experiments, that is 10 fields per condition.

[4] = tested on: MCF10A; assay: CD24/CD44 flow cytometry (stem cells), MCF10A; format: cell-based, human; settings: MCF10A upon IL-17 exposure; ~16% untreated (FIG. 16D)
Experimental: as §1, with “Actin was used as a loading control.” left out, “(D-1 to D-3) IL-17 increases the number of CD24^low CD44^high stem cells in MCF10A cells. Flow cytometry assay showing CD24 and CD44 expression in untreated (NT) and IL-17-treated MCF10A cells (IL-17). Decreased CD24 and increased CD44 expression is indicative of normal stem cells. Red box indicates the stem cell population.” left out
Expression of human IL-17R (FAB177P, R&D system), CD24 (BD Pharmingen) and CD44 (BD Pharmingen) was determined by flow cytometry on a FACSCalibur flow cytometer (BD Biosciences) and analyzed using FlowJo software (Tree star). […]

[5] = tested on: MCF7; assay: CD24/CD44 flow cytometry (cancer stem cells), MCF7; format: cell-based, human; settings: MCF7 upon IL-17 exposure; ~0% untreated (FIG. 17C)
Experimental: FIG. 17: IL-17 induces Epithelial to Mesenchymal Transition (EMT) in well differentiated and non-metastatic MCF7 breast cancer cells which increases MCF7 cancer cell migration, invasion and sternness. MCF7 cells were untreated (NT) or treated TGFβ (8 ng/mL) or IL-17 (10 ng/mL) for 9 days. (A) IL-17 (but not TGFβ) induces EMT characterized by loss of epithelial marker E-Cadherin (which, in color, fluoresces in green) and gain of mesenchymal marker Vimentin (which, in color, fluoresces in red) as assessed by immunofluorescence. (B) IL-17 enhances migratory (black bars) and invasive (white bars) abilities of MCF7 cancer cells as assessed in Boyden chamber assays. (C-1 to C-3) IL-17 increases the number of CD24^low CD44^high stem cells in MCF7 cancer cells. Flow cytometry assay showing CD24 and CD44 expression in untreated (NT) and IL-17-treated MCF7 cells (IL-17). Decreased CD24 and increased CD44 expression is indicative of cancer stem cells. Red box indicates the cancer stem cell population.
Expression of human IL-17R (FAB177P, R&D system), CD24 (BD Pharmingen) and CD44 (BD Pharmingen) was determined by flow cytometry on a FACSCalibur flow cytometer (BD Biosciences) and analyzed using FlowJo software (Tree star). The antibodies were used at 1/25, 1/100 and 1/100 respectively.

[6] = tested on: SLE patients; settings: cited from earlier work
[7] = tested on: B cell clones; assay: Cell viability of B cell clones (propidium iodide uptake, flow cytometry); format: cell-based, human; settings: doxorubicin 300 nM, 96 h, no antibodies
Experimental: FIG. 4: Autocrine production of IL-17 and BAFF protects B cell clones from doxorubicin-mediated cell death. (A) B cell clones secrete IL-17 and BAFF. B104 human B lymphoma cells and B cell clones DN1#1, DN1#2, DN1#3, DN1#4, DN2#5 and DN2#6 (see FIG. 3, above) were seeded at 10^5 cell/mL in medium alone and maintained in culture for 5 days. At day 5, IL-17 and BAFF concentration in cell culture supernatants was determined by ELISA. (B-1 to B-6) IL-17 and BAFF neutralizing antibodies induce B cell clone apoptosis and increase doxorubicin-induced apoptosis. […] Viability was assessed by propridium iodide uptake and flow cytometry analysis. […] B104 human B lymphoma cell line, either non-treated (NT) or pre-treated for 24 h in the presence of CpG2006 (CpG, 2.5 μg/mL) or IL-17 (1 ng/mL) and BAFF (100 ng/mL) as indicated, as well as clones DN1#1, DN1#2, DN1#3, DN1#4, DN2#5 and DN2#6 were treated or not with doxorubicin (300 nM) for 6 h and then p53, p21 and actin protein expression was assessed by immunoblotting. […]
FIG. 8: Neutralizing antibodies to IL-17, BAFF, IL-6, and IL-10 induce apoptosis and sensitize B cell clones to chemotherapy (doxorubicin). […] Viability was assessed by propridium iodide uptake and flow cytometry analysis.
Cell viability was assessed by propidium iodide (Sigma) uptake. Data were acquired on a FACSCalibur (BD Biosciences) and were analyzed with Flowio software (TreeStar).

With “TGFβ: recombinant TGFβ (PeproTech, 100-21)” the “increase in cell invasion” value [1] was “weak” and the “increase in cell migration” value [1] was “weak”.

For “LY2439821: humanized monoclonal antibody against IL-17A (Eli Lilly)”, the “efficacy compared to placebo” value ([2]; intravenous, certain doses, RA patients) is listed as “statistically significantly more effective”.

For “IL-17: recombinant IL-17 (PeproTech, ref 200-17)”, the “increase in ability to migrate in transwell migration assay” value ([1]; IL-17 10 ng/mL, 9 days (FIG. 16C, black bars)) was ~16 fold, the “increase in invasive ability in Matrigel invasion assay” value ([1]; IL-17 10 ng/mL, 9 days (FIG. 16C, white bars)) was ~10 fold and the “increase in invasive ability” value [3] was ~10 fold. For the same compound, the “increase in migratory ability” value [3] was ~8 fold, the “percentage of CD24low/CD44high stem cells” value [4] was 71% and the “percentage of CD24lowCD44high cancer stem cells” value [5] was 67%.

For “AIN 457: human anti-IL-17 monoclonal antibody (Novartis)”, the “patients in whom treatment was effective” value ([2]; Rheumatoid Arthritis, 27% of patients who received placebo) is given as 46% and the “safety / tolerability in RA patients” value ([2]; patients with RA) is given as “safe”.

In the case of TNFα, the “increase in cell invasion” value [1] is reported as “no” and the “increase in cell migration” value [1] is reported as “no”.

For Belimumab: humanized anti-BAFF antibody, the “biological activity in SLE patients” value [6] is listed as “biologically active” and the “tolerability in SLE patients” value [6] is listed as “well tolerated”.

In the case of `COc1cccc2c1C(=O)c1c(O)c3c(c(O)c1C2=O)C[C@@](O)(C(=O)CO)C[C@@H]3O[C@H]1C[C@H](N)[C@H](O)[C@H](C)O1` [doxorubicin], the “doxorubicin-induced apoptosis of B cell clones” value [7] is reported as “remarkably resistant”.
